{
  "source": "patent US20210038732A1",
  "about": "“ANTICANCER MICRORNA AND LIPID FORMULATIONS THEREOF” (INTERNA TECHNOLOGIES B.V., priority 2018, published 2021)",
  "key": {"[1]": {"system": "subq human A2058 melanoma tumors", "assay": "Tumor growth inhibition, different doses and regimens, subq A2058 (Example 4.5)", "assay_type": "in vivo, mice", "settings": "day 21", "procedure": "Six to eight weeks old female BALB/c nude mice (Shanghai Lingchang Bio-Technology Co. Ltd, Shanghai, China) were unilaterally and subcutaneously injected in the right flank with 5×10^6 A2058 tumor cells in PBS (0.1 mL/mouse). At the time of randomization, the TVs ranged between 50.3 and 156.3 mm3 (median 104.8, IQR=91.9-127.1). After randomization, the mice received different miRNA-193a dosing concentrations under different dosing regimen (see Table 10 for dosing scheme). The BRAF-inhibitor vemurafenib was also included. Body weights and TVs (caliper measurements) were determined three times/week. *QDx3,QDx4=one injection per day for 3 or 4 consecutive days; BIW=twice a week, BID=twice daily. Po=per oral."}, "A549, H460": {"system": "A549, H460", "assay": "Cell cycle arrest profile (nuclei imaging or flow cytometry)", "assay_type": "cell-based, human", "settings": "10 nM", "procedure": "Depending on cancer cell type 3000-6000 cells were seeded in a 96 well plate. After cells attached, they were transfected with different concentrations of miRNA-193a and cell cycle profile was measured at different time points. At selected time points media was aspirated from wells and DNA staining solution (Hoescht 33342/Saponin/PFA) was added to each well and incubated for 2 hours at 37° C. Then, cell images were taken using Thermo Celllnsite in which nuclei were specified and nuclei intensity were measured. Nuclei intensity was analyzed using program R to determine the different phases of the cell cycle (G0/G1, S, G2/M) based on the DNA content.\nTo specifically detect the cells that are undergoing apoptosis, FITC Annexin V apoptosis detection kit (BD pharmingen) was used. […] After cells attached, they were transfected with different concentrations of miRNA-193a and apoptosis assay was measured at different time points following the manufacturer's protocol. With this assay we have detected the percentage of apoptotic cells indicating the SubG1 phase of the cell cycle.\nDifferent biological effects of miRNA-193a-3p have been tested in various cancer cell lines (see Table 13). […] For all experiments controls (untreated, mock and scrambled) were measured. […] All the results have been quantified and normalized to the mock control. […]"}, "[2]": {"system": "3′ untranslated regions (UTR) of NT5E (CD73)", "assay": "3′UTR luciferase assay in Hela cells", "assay_type": "cell-based", "settings": "10 nM", "procedure": "Firefly luciferase reporter constructs containing the 3′ untranslated regions (UTR) of NT5E (CD73) were transfected in Hela cells along with 10 nM miRNA-193a-3p or a scrambled control. Cell extracts were prepared 24 hours after transfection, and luciferase activity was measured using the Dual Luciferase Reporter Assay System (Promega). If the 3′UTR is a target of the miRNA, miRNA will interact with 3′UTR and provides lower luciferase signal."}, "[3]": {"system": "twelve syngeneic tumor models", "assay": "Primary tumor growth in a panel of twelve syngeneic tumor models (significance)", "assay_type": "in vivo, mice", "from_the_text": "In this study, the effect of miRNA-193a formulated in diamino lipid nanoparticles was investigated on the primary tumor growth in a panel of twelve syngeneic tumor models. Six to eight weeks mice (Shanghai Lingchang Bio-Technology Co. Ltd, Shanghai, China) were subcutaneously injected with an appropriate number of syngeneic cancer cells, depending on the cancer model (see Table 18). At the time of randomization, tumor volume (TV) was approximately 80-120 mm^3. Body weights and TVs (caliper measurements) were determined 2-3 times/week. After randomization (indicated as day 0) mice received PBS or miR-193a (formulated in diamino lipid nanoparticles) treatments as shown in Table 19. Each tumor model had two groups as depicted in Table 19. Mice were scheduled to be euthanized after two weeks of follow up after a maximum of four weeks of treatment."}, "NT5E and ENTPD1": {"system": "NT5E and ENTPD1", "assay": "NT5E and ENTPD1 expression at mRNA and protein level (RT-PCR, western blot)", "assay_type": "cell-based", "settings": "10 nM, variety of cell lines", "procedure": "To prepare cDNA, first 100 ng total RNA was mixed with Random Hexamers (Qiagen; final concentration 2 μM) in a final volume of 12.5 μl in NFW, denatured for 5 min at 70° C. and immediately cooled on ice. Next, 7.5 μl of a cDNA synthesis mix was added, consisting of 4 μl 5×RT Buffer (Promega), 0.4 μl 25 mM dNTPs (Promega), 1 μl 200 U/μL MMLV RT-enzyme (Promega), 0.5 μL 40 U/μL RNAse Inhibitor (Promega) and 1.6 μL NFW. The following cDNA synthesis protocol was used:\nApproximately 1×10^6 cells were harvested and lysed in immunoprecipitation RIPA lysis buffer and the lysates were blotted onto a PVDF membrane. Membranes were probed overnight with primary antibodies and bound antibodies were visualized using HRP-linked secondary antibodies (Cell-Signalling). The antibodies used for western blot included anti-NT5E (D7F9A) from Cell Signalling Technology, and anti-αTubulin from Santa Cruz. αTubulin was used as a loading control for the western blot experiment.\nTo assess the impact of miRNA-193a-3p on adenosine generation, the release of free phosphate in A2058 melanoma cells was measured as a read out for ATP, ADP, and AMP dephosphorylation in supernatants. […] Similar results were found by measuring the direct amount of adenosine in cell culture supernatants (FIG. 16B). Further, the role of miRNA-193a in A2058 cancer cell migration was investigated."}},
  "data": [
    {"substance": "miRNA-193a: duplex of the miRNA-193a-3p of SEQ ID NO: 218 (mimic, sense) with antisense strand SEQ ID NO: 219; naked in vitro, formulated in vivo (sense UGGGACUUUGUAGGCCAGUUTT; antisense AACUGGCCUACAAAGUCCCAGU; chemistry not given here; listed as Homo sapiens)", "values": [
      {"measurement": "Tumor growth (relative tumor volume)", "setting": "[1]; QDx3 6.7 mg/kg iv x3 weeks, nanoparticles according to the invention", "result": "significant reduction of tumor growth"},
      {"measurement": "Tumor growth (relative tumor volume)", "setting": "[1]; the other dosing regimen (10 mg/kg BIW; 5 mg/kg QDx4)", "result": "mild trend"},
      {"measurement": "Cell cycle arrest (72 h)", "setting": "A549, H460", "result": "SubG1"},
      {"measurement": "Luciferase activity of reporter construct containing mutated form of the CD73 3′UTR", "setting": "[2]", "result": "did not affect the luciferase activity"},
      {"measurement": "Luciferase activity of reporter construct containing NT5E 3′UTR region", "setting": "[2]; vs mock and scrambled controls", "result": "downregulation of the activity"},
      {"measurement": "Tumor growth inhibition (TGI), significance", "setting": "[3]; CT26, Renca, and Hepa1-6 models", "result": "did not induce significant TGI"},
      {"measurement": "Tumor growth inhibition (TGI), significance", "setting": "[3]; H22, Pan02, B16-BL6, RM-1, B16F10, MC38, A20, and EMT-6 models", "result": "significantly induced tumor growth inhibition"},
      {"measurement": "Expression of both enzymes involved in adenosine generation pathway (NT5E, ENTPD1)", "setting": "NT5E and ENTPD1", "result": "downregulated the expression of both enzymes"}
    ]}
  ]
}
